Source: ChEMBL document CHEMBL2010711, “Synthesis and comparative evaluation of 4-oxa- and 4-aza-podophyllotoxins as antiproliferative microtubule destabilizing agents” (Bioorg Med Chem Lett, 2012)
Active and inactive are the calls of the source.

How the values were obtained:
MDA-MB-435 = experiment: Cytotoxicity against human MDA-MB-435 cells after 48 hrs by trypan blue dye exclusion assay; format: functional; settings: MDA-MB-435, 48 h
U-251 = experiment: Cytotoxicity against human U251 cells after 48 hrs by trypan blue dye exclusion assay; format: functional; settings: U-251, 48 h
TK-10 = experiment: Cytotoxicity against human TK10 cells after 48 hrs by trypan blue dye exclusion assay; format: functional; settings: TK-10, 48 h
NCI-H522 = experiment: Cytotoxicity against human NCI-H522 cells after 48 hrs by trypan blue dye exclusion assay; format: functional; settings: NCI-H522, 48 h
MDA-MB-468 = experiment: Cytotoxicity against human MDA-MB-468 cells after 48 hrs by trypan blue dye exclusion assay; format: functional; settings: MDA-MB-468, 48 h
SK-MEL-5 = experiment: Cytotoxicity against human SK-MEL-5 cells after 48 hrs by trypan blue dye exclusion assay; format: functional; settings: SK-MEL-5, 48 h
SW-620 = experiment: Cytotoxicity against human SW620 cells after 48 hrs by trypan blue dye exclusion assay; format: functional; settings: SW-620, 48 h
SK-MEL-28 = experiment: Cytotoxicity against human SK-MEL-28 cells after 48 hrs by trypan blue dye exclusion assay; format: functional; settings: SK-MEL-28, 48 h
T47D = experiment: Cytotoxicity against human T47D cells after 48 hrs by trypan blue dye exclusion assay; format: functional
KM12 = experiment: Cytotoxicity against human KM12 cells after 48 hrs by trypan blue dye exclusion assay; format: functional; settings: KM12, 48 h
RPMI-8226 = experiment: Cytotoxicity against human RPMI8226 cells after 48 hrs by trypan blue dye exclusion assay; format: functional; settings: RPMI-8226, 48 h
NCI/ADR-RES = experiment: Cytotoxicity against human NCI/ADR-RES cells after 48 hrs by trypan blue dye exclusion assay; format: functional
OVCAR-4 = experiment: Cytotoxicity against human OVCAR4 cells after 48 hrs by trypan blue dye exclusion assay; format: functional; settings: OVCAR-4, 48 h
[1] = Cytotoxicity against human Hs 578T cells after 48 hrs by trypan blue dye exclusion assay; format: functional
SF-268 = experiment: Cytotoxicity against human SF268 cells after 48 hrs by trypan blue dye exclusion assay; format: functional; settings: SF-268, 48 h
LOX IMVI = experiment: Cytotoxicity against human LOXIMVI cells after 48 hrs by trypan blue dye exclusion assay; format: functional
NCI-H322M = experiment: Cytotoxicity against human NCI-H322M cells after 48 hrs by trypan blue dye exclusion assay; format: functional
PC-3 = experiment: Cytotoxicity against human PC3 cells after 48 hrs by trypan blue dye exclusion assay; format: functional; settings: PC-3, 48 h
OVCAR-3 = experiment: Cytotoxicity against human OVCAR3 cells after 48 hrs by trypan blue dye exclusion assay; format: functional; settings: OVCAR-3, 48 h
NCI-H226 = experiment: Cytotoxicity against human NCI-H226 cells after 48 hrs by trypan blue dye exclusion assay; format: functional; settings: NCI-H226, 48 h
SK-OV-3 = experiment: Cytotoxicity against human SKOV3 cells after 48 hrs by trypan blue dye exclusion assay; format: functional; settings: SK-OV-3, 48 h
Paracentrotus lividus [2] = experiment: Antimitotic activity against Paracentrotus lividus embryo assessed as cleavage arrest at 2 fold less effective threshold concentration after 2.5 to 6 hrs; format: functional, organism-based
HL-60(TB) = experiment: Cytotoxicity against human HL-60(TB) cells after 48 hrs by trypan blue dye exclusion assay; format: functional; settings: HL-60, 48 h
EKVX = experiment: Cytotoxicity against human EKVX cells after 48 hrs by trypan blue dye exclusion assay; format: functional
UO-31 = experiment: Cytotoxicity against human UO31 cells after 48 hrs by trypan blue dye exclusion assay; format: functional; settings: UO-31, 48 h
Paracentrotus lividus [3] = experiment: Microtubule destabilizing activity in Paracentrotus lividus embryo assessed as embryo spinning at 2 fold less effective threshold concentration after 15 mins to 20 hrs; format: functional, organism-based
UACC-62 = experiment: Cytotoxicity against human UACC62 cells after 48 hrs by trypan blue dye exclusion assay; format: functional; settings: UACC-62, 48 h
HCC 2998 = experiment: Cytotoxicity against human HCC2998 cells after 48 hrs by trypan blue dye exclusion assay; format: functional; settings: HCC 2998, 48 h
M14 = experiment: Cytotoxicity against human M14 cells after 48 hrs by trypan blue dye exclusion assay; format: functional; settings: M14, 48 h
SF-539 = experiment: Cytotoxicity against human SF539 cells after 48 hrs by trypan blue dye exclusion assay; format: functional; settings: SF-539, 48 h
K562 = experiment: Cytotoxicity against human K562 cells after 48 hrs by trypan blue dye exclusion assay; format: functional; settings: K562, 48 h
A549 = experiment: Cytotoxicity against human A549 cells after 48 hrs by trypan blue dye exclusion assay; format: functional; settings: A549, 48 h
IGROV-1 = experiment: Cytotoxicity against human IGROV1 cells after 48 hrs by trypan blue dye exclusion assay; format: functional; settings: IGROV-1, 48 h
SK-MEL-2 = experiment: Cytotoxicity against human SK-MEL-2 cells after 48 hrs by trypan blue dye exclusion assay; format: functional; settings: SK-MEL-2, 48 h
SR = experiment: Cytotoxicity against human SR cells after 48 hrs by trypan blue dye exclusion assay; format: functional
ACHN = experiment: Cytotoxicity against human ACHN cells after 48 hrs by trypan blue dye exclusion assay; format: functional
OVCAR-8 = experiment: Cytotoxicity against human OVCAR8 cells after 48 hrs by trypan blue dye exclusion assay; format: functional; settings: OVCAR-8, 48 h
Paracentrotus lividus [4] = experiment: Antimitotic activity against Paracentrotus lividus embryo assessed as cleavage alteration at 2 fold less effective threshold concentration after 2.5 to 6 hrs; format: functional, organism-based
MOLT-4 = experiment: Cytotoxicity against human MOLT4 cells after 48 hrs by trypan blue dye exclusion assay; format: functional; settings: MOLT-4, 48 h
HCT-116 = experiment: Cytotoxicity against human HCT116 cells after 48 hrs by trypan blue dye exclusion assay; format: functional; settings: HCT-116, 48 h
OVCAR-5 = experiment: Cytotoxicity against human OVCAR5 cells after 48 hrs by trypan blue dye exclusion assay; format: functional; settings: OVCAR-5, 48 h
NCI-H23 = experiment: Cytotoxicity against human NCI-H23 cells after 48 hrs by trypan blue dye exclusion assay; format: functional; settings: NCI-H23, 48 h
COLO 205 = experiment: Cytotoxicity against human COLO205 cells after 48 hrs by trypan blue dye exclusion assay; format: functional; settings: COLO 205, 48 h
CAKI-1 = experiment: Cytotoxicity against human CAKI-1 cells after 48 hrs by trypan blue dye exclusion assay; format: functional; settings: CAKI-1, 48 h
Malme-3M = experiment: Cytotoxicity against human MALME-3M cells after 48 hrs by trypan blue dye exclusion assay; format: functional
BT-549 = experiment: Cytotoxicity against human BT549 cells after 48 hrs by trypan blue dye exclusion assay; format: functional; settings: BT-549, 48 h
HCT-15 = experiment: Cytotoxicity against human HCT15 cells after 48 hrs by trypan blue dye exclusion assay; format: functional; settings: HCT-15, 48 h
SNB-75 = experiment: Cytotoxicity against human SNB75 cells after 48 hrs by trypan blue dye exclusion assay; format: functional; settings: SNB-75, 48 h
A498 = experiment: Cytotoxicity against human A498 cells after 48 hrs by trypan blue dye exclusion assay; format: functional; settings: A498, 48 h
CCRF-CEM = experiment: Cytotoxicity against human CCRF-CEM cells after 48 hrs by trypan blue dye exclusion assay; format: functional
786-0 = experiment: Cytotoxicity against human 786-0 cells after 48 hrs by trypan blue dye exclusion assay; format: functional; settings: 786-0, 48 h
NCI-H460 = experiment: Cytotoxicity against human NCI-H460 cells after 48 hrs by trypan blue dye exclusion assay; format: functional; settings: NCI-H460, 48 h
HOP-62 = experiment: Cytotoxicity against human HOP62 cells after 48 hrs by trypan blue dye exclusion assay; format: functional; settings: HOP-62, 48 h
DU-145 = experiment: Cytotoxicity against human DU145 cells after 48 hrs by trypan blue dye exclusion assay; format: functional; settings: DU-145, 48 h
MDA-MB-231 = experiment: Cytotoxicity against human MDA-MB-231 cells after 48 hrs by trypan blue dye exclusion assay; format: functional; settings: MDA-MB-231, 48 h
SNB-19 = experiment: Cytotoxicity against human SNB19 cells after 48 hrs by trypan blue dye exclusion assay; format: functional; settings: SNB-19, 48 h
HOP-92 = experiment: Cytotoxicity against human HOP92 cells after 48 hrs by trypan blue dye exclusion assay; format: functional; settings: HOP-92, 48 h
SN12C = experiment: Cytotoxicity against human SN12C cells after 48 hrs by trypan blue dye exclusion assay; format: functional
UACC-257 = experiment: Cytotoxicity against human UACC257 cells after 48 hrs by trypan blue dye exclusion assay; format: functional; settings: UACC-257, 48 h
HT-29 = experiment: Cytotoxicity against human HT-29 cells after 48 hrs by trypan blue dye exclusion assay; format: functional; settings: HT-29, 48 h
SF-295 = experiment: Cytotoxicity against human SF295 cells after 48 hrs by trypan blue dye exclusion assay; format: functional; settings: SF-295, 48 h
RXF 393 = experiment: Cytotoxicity against human RXF393 cells after 48 hrs by trypan blue dye exclusion assay; format: functional; settings: RXF 393, 48 h
MCF7 = experiment: Cytotoxicity against human MCF7 cells after 48 hrs by trypan blue dye exclusion assay; format: functional; settings: MCF7, 48 h

COc1ccc2c(c1)NC1=C(C(=O)OC1)C2c1cc(OC)c2c(c1)OCO2 (stereo not given)
GI50 (MDA-MB-435): < 10 nM | GI50 (U-251): 16.8 nM | GI50 (TK-10): 60.7 nM | GI50 (NCI-H522): < 10 nM | GI50 (MDA-MB-468): < 10 nM | GI50 (SK-MEL-5): 10.8 nM | GI50 (SW-620): < 10 nM | GI50 (SK-MEL-28): 56.4 nM | GI50 (T47D): > 100000 nM | GI50 (KM12): < 10 nM | GI50 (RPMI-8226): < 10 nM | GI50 (NCI/ADR-RES): < 10 nM | GI50 (OVCAR-4): 19.5 nM | GI50 [1]: < 10 nM | GI50 (SF-268): < 10 nM | GI50 (LOX IMVI): < 10 nM | GI50 (NCI-H322M): 58.3 nM | GI50 (PC-3): 19.9 nM | GI50 (OVCAR-3): < 10 nM | TGI (OVCAR-3): 12.2 nM | GI50 (NCI-H226): 10.1 nM | GI50 (SK-OV-3): 14.6 nM | Activity (Paracentrotus lividus [2]): inactive | GI50 (HL-60(TB)): 20.9 nM | GI50 (EKVX): < 10 nM | GI50 (UO-31): 30 nM | Activity (Paracentrotus lividus [3]): inactive | GI50 (UACC-62): < 10 nM | GI50 (HCC 2998): 23.3 nM | GI50 (M14): 13.2 nM | GI50 (SF-539): < 10 nM | GI50 (K562): < 10 nM | GI50 (A549): 14.6 nM | GI50 (IGROV-1): 25 nM | GI50 (SK-MEL-2): 26.3 nM | GI50 (SR): < 10 nM | GI50 (ACHN): 56.7 nM | GI50 (OVCAR-8): < 10 nM | Activity (Paracentrotus lividus [4]): inactive | GI50 (MOLT-4): 12.9 nM | GI50 (HCT-116): < 10 nM | GI50 (OVCAR-5): 81.7 nM | GI50 (NCI-H23): 20.2 nM | GI50 (COLO 205): < 10 nM | TGI (COLO 205): 26.8 nM | GI50 (CAKI-1): 50.2 nM | GI50 (Malme-3M): > 100000 nM | GI50 (BT-549): 46 nM | GI50 (HCT-15): 28.3 nM | GI50 (SNB-75): 42.6 nM | GI50 (A498): < 10 nM | GI50 (CCRF-CEM): < 10 nM | GI50 (786-0): 24.9 nM | GI50 (NCI-H460): 22.5 nM | GI50 (HOP-62): 12.1 nM | GI50 (DU-145): 19 nM | GI50 (MDA-MB-231): 26.8 nM | GI50 (SNB-19): 49.9 nM | GI50 (HOP-92): 86.2 nM | GI50 (SN12C): 19.9 nM | GI50 (UACC-257): 51.2 nM | GI50 (HT-29): < 10 nM | GI50 (SF-295): < 10 nM | GI50 (RXF 393): < 10 nM | GI50 (MCF7): < 10 nM
